Patent US11236129B2, “IL-17A binding peptides and medical uses thereof” (Dompe' Farmaceutici S.P.A., priority 2018, dated 2022)
Residues, ends and D or L forms follow the SMILES beside them.

Target: IL-17RA/IL17RC dimerization induced by IL-17A (Homo sapiens, UniProt Q16552)
Test: IL-17RA/IL17RC dimerization assay in response to IL-17A (PathHunter Cytokine Receptor Assay)
Assay type: cell-based
Details: IL-17A at EC80; read-out: IC50 in IL-17RA/IL7RC dimerization assay
Method in brief: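 Receptor dimerization was read as chemiluminescence from complemented β-galactosidase after IL-17A at EC80 concentration for 6–16 h at 37 °C. Peptides were added 60 min before agonist, at 37 °C or room temperature, with 1% vehicle. Percent inhibition used the EC80-stimulated and vehicle wells as references.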

Chain of IL-17RA/IL17RC dimerization induced by IL-17A (Q16552 24-155): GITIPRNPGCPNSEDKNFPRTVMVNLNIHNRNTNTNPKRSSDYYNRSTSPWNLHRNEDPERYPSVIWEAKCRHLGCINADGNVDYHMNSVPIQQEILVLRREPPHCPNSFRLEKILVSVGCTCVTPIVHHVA

Row | SMILES | IC50 [µM]
1 | CC[C@H](C)[C@H](NC(C)=O)C(=O)N[C@@H](Cc1c[nH]cn1)C(=O)N[C@H](C(=O)N[C@H](C(=O)N[C@H](C(=O)N[C@@H](CC(C)C)C(=O)N[C@@H](C)C(=O)N[C@@H](CC(=O)O)C(=O)N[C@@H](CC(C)C)C(=O)N[C@@H](Cc1c[nH]c2ccccc12)C(=O)N[C@@H](CC(=O)O)C(=O)N[C@@H](Cc1c[nH]c2ccccc12)C(=O)N[C@H](C(=O)N[C@@H](CC(N)=O)C(=O)N[C@@H](CCCCN)C(N)=O)[C@@H](C)CC)[C@@H](C)CC)[C@@H](C)O)C(C)C [SEQ ID NO: 188] (Ac-IHVTILADLWDWINK-NH2) | < 10
2 | CC[C@H](C)[C@H](NC(C)=O)C(=O)N[C@@H](Cc1c[nH]cn1)C(=O)N[C@H](C(=O)N[C@H](C(=O)N[C@H](C(=O)N[C@H](C(=O)N[C@@H](C)C(=O)N[C@@H](CC(=O)O)C(=O)N[C@@H](CC(C)C)C(=O)N[C@@H](Cc1c[nH]c2ccccc12)C(=O)N[C@@H](CC(=O)O)C(=O)N[C@@H](Cc1c[nH]c2ccccc12)C(=O)N[C@H](C(=O)N[C@@H](CC(N)=O)C(=O)N[C@@H](CCCCN)C(N)=O)[C@@H](C)CC)C(C)C)[C@@H](C)CC)[C@@H](C)O)C(C)C [SEQ ID NO: 189] (Ac-IHVTIVADLWDWINK-NH2) | < 10
3 | CC[C@H](C)[C@H](NC(C)=O)C(=O)N[C@@H](Cc1c[nH]cn1)C(=O)N[C@H](C(=O)N[C@H](C(=O)N[C@H](C(=O)N[C@H](C(=O)N[C@@H](C)C(=O)N[C@@H](CC(=O)O)C(=O)N[C@@H](CC(C)C)C(=O)N[C@@H](Cc1c[nH]c2ccccc12)C(=O)N[C@@H](CC(=O)O)C(=O)N[C@@H](Cc1c[nH]c2ccccc12)C(=O)N[C@H](C(=O)N[C@@H](CC(N)=O)C(=O)N[C@@H](CCCCN)C(N)=O)[C@@H](C)CC)[C@@H](C)CC)[C@@H](C)CC)[C@@H](C)O)C(C)C [SEQ ID NO: 190] (Ac-IHVTIIADLWDWINK-NH2) | < 10
4 | CC[C@H](C)[C@H](NC(C)=O)C(=O)N[C@@H](Cc1c[nH]cn1)C(=O)N[C@H](C(=O)N[C@H](C(=O)N[C@H](C(=O)N[C@@H](CC(N)=O)C(=O)N[C@@H](C)C(=O)N[C@@H](CC(=O)O)C(=O)N[C@@H](CC(C)C)C(=O)N[C@@H](Cc1c[nH]c2ccccc12)C(=O)N[C@@H](CC(=O)O)C(=O)N[C@@H](Cc1c[nH]c2ccccc12)C(=O)N[C@H](C(=O)N[C@@H](CC(N)=O)C(=O)N[C@@H](CCCCN)C(N)=O)[C@@H](C)CC)[C@@H](C)CC)[C@@H](C)O)C(C)C [SEQ ID NO: 191] (Ac-IHVTINADLWDWINK-NH2) | < 10
5 | CC[C@H](C)[C@H](NC(C)=O)C(=O)N[C@@H](Cc1c[nH]cn1)C(=O)N[C@H](C(=O)N[C@H](C(=O)N[C@H](C(=O)N1CCC[C@H]1C(=O)NCC(=O)N[C@@H](CC(=O)O)C(=O)N[C@@H](CC(C)C)C(=O)N[C@@H](Cc1c[nH]c2ccccc12)C(=O)N[C@@H](CC(=O)O)C(=O)N[C@@H](Cc1c[nH]c2ccccc12)C(=O)N[C@H](C(=O)N[C@@H](CC(N)=O)C(=O)N[C@@H](CCCCN)C(N)=O)[C@@H](C)CC)[C@@H](C)CC)[C@@H](C)O)C(C)C [SEQ ID NO: 192] (Ac-IHVTIPGDLWDWINK-NH2) | < 10
6 | CC[C@H](C)[C@H](NC(C)=O)C(=O)N[C@@H](Cc1c[nH]cn1)C(=O)N[C@H](C(=O)N[C@H](C(=O)N[C@H](C(=O)N1CCC[C@H]1C(=O)N[C@@H](CC(C)C)C(=O)N[C@@H](CC(=O)O)C(=O)N[C@@H](CC(C)C)C(=O)N[C@@H](Cc1c[nH]c2ccccc12)C(=O)N[C@@H](CC(=O)O)C(=O)N[C@@H](Cc1c[nH]c2ccccc12)C(=O)N[C@H](C(=O)N[C@@H](CC(N)=O)C(=O)N[C@@H](CCCCN)C(N)=O)[C@@H](C)CC)[C@@H](C)CC)[C@@H](C)O)C(C)C [SEQ ID NO: 193] (Ac-IHVTIPLDLWDWINK-NH2) | < 10
7 | CC[C@H](C)[C@H](NC(C)=O)C(=O)N[C@@H](Cc1c[nH]cn1)C(=O)N[C@H](C(=O)N[C@H](C(=O)N[C@H](C(=O)N1CCC[C@H]1C(=O)N1CCC[C@H]1C(=O)N[C@@H](CC(=O)O)C(=O)N[C@@H](CC(C)C)C(=O)N[C@@H](Cc1c[nH]c2ccccc12)C(=O)N[C@@H](CC(=O)O)C(=O)N[C@@H](Cc1c[nH]c2ccccc12)C(=O)N[C@H](C(=O)N[C@@H](CC(N)=O)C(=O)N[C@@H](CCCCN)C(N)=O)[C@@H](C)CC)[C@@H](C)CC)[C@@H](C)O)C(C)C [SEQ ID NO: 194] (Ac-IHVTIPPDLWDWINK-NH2) | < 10
8 | CC[C@H](C)[C@H](NC(C)=O)C(=O)N[C@@H](Cc1c[nH]cn1)C(=O)N[C@H](C(=O)N[C@H](C(=O)N[C@H](C(=O)N1CCC[C@H]1C(=O)N[C@H](C(=O)N[C@@H](CC(=O)O)C(=O)N[C@@H](CC(C)C)C(=O)N[C@@H](Cc1c[nH]c2ccccc12)C(=O)N[C@@H](CC(=O)O)C(=O)N[C@@H](Cc1c[nH]c2ccccc12)C(=O)N[C@H](C(=O)N[C@@H](CC(N)=O)C(=O)N[C@@H](CCCCN)C(N)=O)[C@@H](C)CC)C(C)C)[C@@H](C)CC)[C@@H](C)O)C(C)C [SEQ ID NO: 195] (Ac-IHVTIPVDLWDWINK-NH2) | < 10
9 | CC[C@H](C)[C@H](NC(C)=O)C(=O)N[C@@H](Cc1c[nH]cn1)C(=O)N[C@H](C(=O)N[C@H](C(=O)N[C@H](C(=O)N1CCC[C@H]1C(=O)N[C@H](C(=O)N[C@@H](CC(=O)O)C(=O)N[C@@H](CC(C)C)C(=O)N[C@@H](Cc1c[nH]c2ccccc12)C(=O)N[C@@H](CC(=O)O)C(=O)N[C@@H](Cc1c[nH]c2ccccc12)C(=O)N[C@H](C(=O)N[C@@H](CC(N)=O)C(=O)N[C@@H](CCCCN)C(N)=O)[C@@H](C)CC)[C@@H](C)CC)[C@@H](C)CC)[C@@H](C)O)C(C)C [SEQ ID NO: 196] (Ac-IHVTIPIDLWDWINK-NH2) | < 10
10 | CC[C@H](C)[C@H](NC(C)=O)C(=O)N[C@@H](Cc1c[nH]cn1)C(=O)N[C@H](C(=O)N[C@H](C(=O)N[C@H](C(=O)N1CCC[C@H]1C(=O)N[C@@H](CC(N)=O)C(=O)N[C@@H](CC(=O)O)C(=O)N[C@@H](CC(C)C)C(=O)N[C@@H](Cc1c[nH]c2ccccc12)C(=O)N[C@@H](CC(=O)O)C(=O)N[C@@H](Cc1c[nH]c2ccccc12)C(=O)N[C@H](C(=O)N[C@@H](CC(N)=O)C(=O)N[C@@H](CCCCN)C(N)=O)[C@@H](C)CC)[C@@H](C)CC)[C@@H](C)O)C(C)C [SEQ ID NO: 197] (Ac-IHVTIPNDLWDWINK-NH2) | < 10
11 | CC[C@H](C)[C@H](NC(C)=O)C(=O)N[C@@H](Cc1c[nH]cn1)C(=O)N[C@H](C(=O)N[C@H](C(=O)N[C@H](C(=O)N1CCC[C@H]1C(=O)N[C@@H](CCC(N)=O)C(=O)N[C@@H](CC(=O)O)C(=O)N[C@@H](CC(C)C)C(=O)N[C@@H](Cc1c[nH]c2ccccc12)C(=O)N[C@@H](CC(=O)O)C(=O)N[C@@H](Cc1c[nH]c2ccccc12)C(=O)N[C@H](C(=O)N[C@@H](CC(N)=O)C(=O)N[C@@H](CCCCN)C(N)=O)[C@@H](C)CC)[C@@H](C)CC)[C@@H](C)O)C(C)C [SEQ ID NO: 198] (Ac-IHVTIPQDLWDWINK-NH2) | < 10
12 | CC[C@H](C)[C@H](NC(C)=O)C(=O)N[C@@H](Cc1c[nH]cn1)C(=O)N[C@H](C(=O)N[C@H](C(=O)N[C@H](C(=O)N1CCC[C@H]1C(=O)N[C@@H](C)C(=O)N[C@@H](CCC(N)=O)C(=O)N[C@@H](CC(C)C)C(=O)N[C@@H](Cc1c[nH]c2ccccc12)C(=O)N[C@@H](CC(=O)O)C(=O)N[C@@H](Cc1c[nH]c2ccccc12)C(=O)N[C@H](C(=O)N[C@@H](CC(N)=O)C(=O)N[C@@H](CCCCN)C(N)=O)[C@@H](C)CC)[C@@H](C)CC)[C@@H](C)O)C(C)C [SEQ ID NO: 199] (Ac-IHVTIPAQLWDWINK-NH2) | < 10
13 | CC[C@H](C)[C@H](NC(C)=O)C(=O)N[C@@H](Cc1c[nH]cn1)C(=O)N[C@H](C(=O)N[C@H](C(=O)N[C@H](C(=O)N1CCC[C@H]1C(=O)N[C@@H](C)C(=O)N[C@@H](Cc1ccc(O)cc1)C(=O)N[C@@H](CC(C)C)C(=O)N[C@@H](Cc1c[nH]c2ccccc12)C(=O)N[C@@H](CC(=O)O)C(=O)N[C@@H](Cc1c[nH]c2ccccc12)C(=O)N[C@H](C(=O)N[C@@H](CC(N)=O)C(=O)N[C@@H](CCCCN)C(N)=O)[C@@H](C)CC)[C@@H](C)CC)[C@@H](C)O)C(C)C [SEQ ID NO: 200] (Ac-IHVTIPAYLWDWINK-NH2) | < 10
14 | CC[C@H](C)[C@H](NC(C)=O)C(=O)N[C@@H](Cc1c[nH]cn1)C(=O)N[C@H](C(=O)N[C@H](C(=O)N[C@H](C(=O)N1CCC[C@H]1C(=O)N[C@@H](C)C(=O)N[C@@H](CC(=O)O)C(=O)N[C@@H](C)C(=O)N[C@@H](Cc1c[nH]c2ccccc12)C(=O)N[C@@H](CC(=O)O)C(=O)N[C@@H](Cc1c[nH]c2ccccc12)C(=O)N[C@H](C(=O)N[C@@H](CC(N)=O)C(=O)N[C@@H](CCCCN)C(N)=O)[C@@H](C)CC)[C@@H](C)CC)[C@@H](C)O)C(C)C [SEQ ID NO: 201] (Ac-IHVTIPADAWDWINK-NH2) | < 10
15 | CC[C@H](C)[C@H](NC(C)=O)C(=O)N[C@@H](Cc1c[nH]cn1)C(=O)N[C@H](C(=O)N[C@H](C(=O)N[C@H](C(=O)N1CCC[C@H]1C(=O)N[C@@H](C)C(=O)N[C@@H](CC(=O)O)C(=O)NCC(=O)N[C@@H](Cc1c[nH]c2ccccc12)C(=O)N[C@@H](CC(=O)O)C(=O)N[C@@H](Cc1c[nH]c2ccccc12)C(=O)N[C@H](C(=O)N[C@@H](CC(N)=O)C(=O)N[C@@H](CCCCN)C(N)=O)[C@@H](C)CC)[C@@H](C)CC)[C@@H](C)O)C(C)C [SEQ ID NO: 202] (Ac-IHVTIPADGWDWINK-NH2) | < 10
16 | CC[C@H](C)[C@H](NC(C)=O)C(=O)N[C@@H](Cc1c[nH]cn1)C(=O)N[C@H](C(=O)N[C@H](C(=O)N[C@H](C(=O)N1CCC[C@H]1C(=O)N[C@@H](C)C(=O)N[C@@H](CC(=O)O)C(=O)N1CCC[C@H]1C(=O)N[C@@H](Cc1c[nH]c2ccccc12)C(=O)N[C@@H](CC(=O)O)C(=O)N[C@@H](Cc1c[nH]c2ccccc12)C(=O)N[C@H](C(=O)N[C@@H](CC(N)=O)C(=O)N[C@@H](CCCCN)C(N)=O)[C@@H](C)CC)[C@@H](C)CC)[C@@H](C)O)C(C)C [SEQ ID NO: 203] (Ac-IHVTIPADPWDWINK-NH2) | < 10
